Source: paper PMC10714399, “Open Source Antibiotics: Simple Diarylimidazoles Are Potent against Methicillin-Resistant Staphylococcus aureus” (ACS Infectious Diseases, 2023)
Values after ≈ are worked out from the molar mass of the structure shown. Where two headings read alike, the source gives them in different places.

Key:
[1] = In vitro metabolic stability, human liver microsomes (Monash); assay type: in vitro ADME; conditions: NADPH
Procedure: (§1) The metabolic stability assay was performed by incubating each test compound with a suspension of liver microsomes (0.4 mg/mL protein, 1 μM substrate, 37 °C). Microsomes were purchased from XenoTech. The metabolic reaction was initiated by the addition of an NADPH-regenerating system and quenched at various time points over a 60 min incubation by the addition of acetonitrile containing metolazone as an internal standard. Control samples (containing no NADPH) were included (quenched at 2, 30, and 60 min) to monitor for potential degradation in the absence of cofactor. […]
(§2) d) In Vitro Metabolic Stability
(§3) The metabolic stability assay was performed by incubating each test compound with a suspension of liver
(§4) microsomes (0.4 mg/mL, 37°C). The metabolic reaction was initiated by the addition of an NADPH-regenerating
(§5) system and quenched at various time points over a 60 minute incubation by the addition of acetonitrile containing
(§6) metolazone as internal standard. Control samples (containing no NADPH) were included (quenched at 2, 30 and 60
(§7) minutes) to monitor for potential degradation in the absence of cofactor.
(§8) The human liver microsomes used in this experiment were supplied by XenoTech, lot # 1710084.The rat liver
(§9) microsomes used in this experiment were supplied by XenoTech, lot # 1610290. Microsomal incubations were
(§10) performed at a substrate concentration of 1 µM.
(§11) Data analysis and interpretation:
(§12) Substrate depletion as a function of time was analysed as described by Obach (1999) Drug Metab. Dispos., 27:1350-
(§13) 1359. Intrinsic clearance (CLint) values were classified at the limits of low and high clearance bands based on a
(§14) rearrangement of the well stirred model of hepatic elimination. It should be noted that the potential impact of
(§15) compound binding (either in microsomes or in blood) on the relationship between in vitro intrinsic clearance and
(§16) hepatic clearance in vivo has not been accounted for in these studies.
(§17) In Vitro Intrinsic Clearance
(§18) Species (µL/min/mg protein)
(§19) Low Clearance High Clearance
(§20) Experimental results are tabulated on the following page(s).
(§21) (1 picture or pasted object on this page, not shown here)

[2] = Distribution coefficient estimation using chromatography, gLogD (Monash); assay type: physicochemical
Excerpt: Partition coefficient values (LogD) of the test compounds were estimated at pH 7.4 by the correlation of their chromatographic retention properties against the characteristics of a series of standard compounds with known partition coefficient values. The method employed is a gradient HPLC-based derivation of the method developed by Lombardo.[42] […]
c) Distribution Coefficient Estimation using Chromatography (gLogDpH)
Partition coefficient values (LogD) of the test compounds were estimated at pH 7.4 by correlation of their
chromatographic retention properties against the characteristics of a series of standard compounds with known
partition coefficient values. […]
(§22) In Vitro Intrinsic Clearance […]
as §20, §21

[3] = In vitro metabolic stability, rat liver microsomes (Monash); assay type: in vitro ADME; conditions: NADPH
Procedure: as §1, §2, §3, §4, §5, §6, §7, §8, §9, §10, §11, §12, §13, §14, §15, §16, §17, §18, §19, §20, §21

[4] = Kinetic solubility estimation using nephelometry (Monash); assay type: physicochemical; conditions: for Sol 2.0: 0.01 M HCl, approx pH 2.0; for Sol 6.5: pH 6.5 phosphate buffer
Procedure: Compound in DMSO was spiked into either pH 6.5 phosphate buffer or 0.01 M HCl (approximately pH 2.0) with the final DMSO concentration being 1%. […]
b) Kinetic Solubility Estimation using Nephelometry (SolpH)
Compound in DMSO was spiked into either pH 6.5 phosphate buffer or 0.01 M HCl (approx pH 2.0) with the final
DMSO concentration being 1%. After 30 minutes had elapsed, samples were then analysed via Nephelometry to
determine a solubility range. See Bevan and Lloyd (2000) Anal Chem, 72:1781-1787. […]
as §22, §20, §21

[5] = system: HEK293 cells; assay: HEK293 toxicity, 96-well dose-response (UCL; MTT or resazurin, with or without recovery); assay type: cell-based, human; conditions: 32 μg/mL
Procedure: The importance of balancing potency vs MRSA and cytotoxicity led us to examine a subset of compounds more thoroughly for toxicity against human embryonic kidney cell line HEK293. […] Dmax is a parameter that quantifies toxicity at the highest tested concentration (32 μg/mL for all compounds), calculated as reciprocal percentage of viable cells (100 – viability%), where cells either were allowed to recover or viability was measured immediately after treatment. […] Our efforts focused on trying to replicate the original toxicity experiments (by CO-ADD) with tamoxifen using a protocol modified for use with 96-well plates. Given the variability of protocols and results in the literature,[28] it was important to compare with a standard protocol we have reliably used in our own laboratories.[29]−[33] […] Truly “non-toxic” compounds might be expected to show Dmax < 50% for all experiment variations, e.g., 861. […] A large spread of Dmax values comparing recovery and non-recovery conditions larger than 20% is perhaps indicative of a mechanism of toxicity that persists beyond exposure, i.e., cytotoxic compounds that continue to induce toxicity as cells recover and restart dividing, for example, compounds 865, 870, 871, 980, and 981. […] This variability could be driven by interference of the compounds with the fluorescence readout or resorufin build-up as previously described.[27]
HEK293 cells (ATCC, UK) at passage 32 were a kind gift from Dr. Ben Allsop from the Translational Research Office at University College London. Cells were tested for mycoplasma using a MycoAlert Detection Kit (Lonza, Switzerland) as per manufacturer instructions, frozen stocks were stored in liquid nitrogen, and cells were re-tested whenever a new aliquot was thawed.
Cells were maintained in DMEM (Sigma-Aldrich, UK) supplemented with 10% heat-inactivated FBS (Sigma-Aldrich, UK), 1% GlutaMax (ThermoFisher, UK), and 1% sodium pyruvate (Lonza, UK) without antibiotics in an incubator at 37 °C and 5% CO2. Media was changed every 2 days, and cells were passaged every 3–4 days at a subcultivation ratio of 1:10, by detaching the cells with phenol-free TrypLE Express (ThermoFisher, UK), after washing with HBSS Ca^2+/Mg^2+ (ThermoFisher, UK). Up to 55 passages were used throughout the experiments.
(a) Cell seeding: At subculture, a dilute solution of cells was counted using Trypan Blue (Sigma-Aldrich, UK) and a hemocytometer. Cells were further diluted to 7000 or 50 000 cells/mL for experiments.
For recovery experiments, 700 cells (100 μL) were seeded in 96-well plates and incubated for 48 h while cells reached exponential phase.
For non-recovery experiments, 5000 cells (100 μL) were seeded in 96-well plates and incubated for 48 h while cells reached confluence. This is the same number of cells as per the CO-ADD protocol where 384-well plates were used, but we extended the growth time to 48 h to produce a similar confluency.
Stock solutions were diluted 100 times (to 1% DMSO) to 32 μg/mL in full medium (vortexed briefly) and then serially diluted using a digital pipet (Explorer, Eppendorf, Germany) at a dilution factor of 2 to a final concentration of […].
(c) Dosing experiments: At the specified time after seeding, media was removed from cells, cells were washed with HBSS Ca^2+/Mg^2+ (100 μL), and 100 μL of diluted compounds were added as per Supporting Information - Biology, Figure S4, and incubated for 24 h.
After treatment, solutions were removed, and cells were washed with HBSS Ca^2+/Mg^2+. For non-recovery experiments, viability was determined immediately as described below.
For recovery experiments, fresh media was added to plates (100 μL) and cells were returned to the incubator for another 72 h, after which viability was recorded as described below.
i. MTT assay: 3-[4,5-Dimethylthiazol-2-yl]-2,5-diphenyltetrazolium bromide (MTT) (Sigma-Aldrich, UK) was dissolved in sterile PBS at 5 mg/mL with sonication (20 min), protected from light. […]

[6] = system: PMM (primary mouse macrophages); assay: Toxicity against PMM; assay type: cell-based
Procedure: (§23) ADME and toxicity for compounds were measured according to procedures outlined in the manuscript submitted in parallel to this one;2 other procedures were used for those compounds analysed by Monash University (in vitro ADME) or UCL (toxicity), both described in the main

[7] = system: MRC-5SV2 (human lung fibroblast cell line); assay: Toxicity against MRC-5SV2; assay type: cell-based
Procedure: as §23

[8] = system: Enterococcus faecalis ATCC 51299 (vanA-positive; vancomycin-resistant); assay: In vitro antibacterial activity, MIC (UCL), VRE; assay type: cell-based; conditions: for MIC: read-out: VRE MIC
Summary of the method: (§24)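 Growth inhibition was read as MIC across a two-fold range of 32 down to 0.03 μg/mL in isosensitest broth. Bacteria from overnight plates were set to A600 0.1 in PBS, about 1 × 10^8 CFU/mL, and diluted 1:100 before inoculation.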

[9] = system: Staphylococcus aureus NCTC 13373 (mecA-positive; methicillin-resistant); assay: In vitro antibacterial activity, MIC (UCL School of Pharmacy assay), MRSA; assay type: cell-based; conditions: for MIC: Staphylococcus aureus, read-out: MRSA MIC
Summary of the method: as §24

[10] = system: S. aureus ATCC 25923 (methicillin-susceptible); assay: In vitro antibacterial activity, MIC (UCL), MSSA; assay type: cell-based, Staphylococcus aureus; conditions: for MIC: Staphylococcus aureus, read-out: MSSA MIC
Summary of the method: as §24

[11] = Rat hepatocyte intrinsic clearance; assay type: in vitro ADME; conditions: rat, hepatocytes; Figure 4; read-out: Rat Hep CLint
[12] = Aqueous solubility; assay type: physicochemical; conditions: thermodynamic from solid; read-out: Aqueous Solubility
[13] = Human plasma protein binding (PPB); assay type: in vitro ADME; conditions: human, plasma; read-out: Human PPB (converted)

Row | SMILES | CLint, in vitro [1] [µL/min/mg protein] | T1/2 [1] [min] | gLogD at pH 7.4 [2] | CLint, in vitro [3] [µL/min/mg protein] | T1/2 [3] [min] | Sol 2.0 [4] [µg/mL] | Sol 6.5 [4] [µg/mL] | spread of Dmax values comparing recovery and non-recovery conditions [5] | PMM TC50 [6] [mg/L] | MRC5 TC50 [7] [mg/L] | VRE MIC [8] [mg/L] | MIC [8] [mg/L] | MIC [9] [mg/L] | MIC [10] [mg/L] | hepatocyte CLint [11] [µL/min/1e6 cells] | solubility [12] [µM] | MIC ([9]; 16 h) [mg/L] | fraction unbound [13] | MRSA MIC [9] [mg/L] | MSSA MIC [10] [mg/L]
1 | c1ccc(-c2nc3n(c2-c2ccc4c(c2)OCO4)CCS3)nc1 [UNC-ALM-DAI-16] | 37 | 47 | 1.6 | 74 | 23 | 25 to 50 | 12.5 to 25 | – | – | – | – | – | – | – | – | – | – | – | – | –
2 | c1ccc(-c2nc3ccccn3c2-c2ccc3c(c2)OCO3)nc1 [UNC-ALM-DAI-18] | 47 | 37 | 1.8 | 99 | 18 | > 100 | 25 to 50 | – | – | – | – | – | – | – | – | – | – | – | – | –
3 | c1ccc(-c2nc3n(c2-c2ccc4occc4c2)CCC3)nc1 [UNC-ALM-DAI-27] | 51 | 34 | 1.9 | 72 | 24 | > 100 | 25 to 50 | – | – | – | – | – | – | – | – | – | – | – | – | –
4 | Fc1ccc(N(CC2CC2)c2c(-c3ccccn3)nc3ccccn23)cc1 [compound 979] | – | – | – | – | – | – | – | small difference | 1.4 | 2.8 | 4 | 4 (≈ 11.2 µM) | 2 (≈ 5.58 µM) | 2 (≈ 5.58 µM) | – | – | – | – | – | –
5 | CCCN(c1ccc(F)cc1)c1c(-c2ccccn2)nc2ccccn12 [compound 982] | – | – | – | – | – | – | – | small difference | 0.7 | 1.5 | 4 | 4 (≈ 11.5 µM) | 2 (≈ 5.77 µM) | 2 (≈ 5.77 µM) | 108 | 3 (≈ 1.04 µg/mL) | 2 (≈ 5.77 µM) | 0.007 | – | –
6 | CC(C)CN(c1ccc(F)cc1)c1c(-c2ccccn2)nc2ccccn12 [compound 983] | – | – | – | – | – | – | – | small difference | 8.3 | 19.5 | – | 8 (≈ 22.2 µM) | 2 (≈ 5.55 µM) | 4 (≈ 11.1 µM) | 234 | 8 (≈ 2.88 µg/mL) | 2 (≈ 5.55 µM) | 0.004 | – | –
7 | Fc1ccc(Nc2c(-c3ccccn3)nc3sccn23)cc1 [compound 984] | – | – | – | – | – | – | – | small difference | 9.9 | 2.0 | 8 | – | – | – | – | – | – | – | 8 | 4
